Results published in PubChem BioAssay AID1224900.

System: MDA-MB-231 viability, PrestoBlue fluorescence
Assay: growth inhibition of MDA-MB-231 cells, dose response, mTOR inhibitor project (AID 1224900)

CCOC(Cn1nc(-c2ccc3oc(N)nc3c2)c2c(N)ncnc21)OCC
EC50: 72 nM
